In patent publication US7485651B2, “Compounds with activity on muscarinic receptors” (Acadia Pharmaceuticals, Inc., priority 1998, dated 2009):

What was measured:
[1] = target: T1, m2 receptor (Homo sapiens, UniProt P08172); test: NIH 3T3 cells transfected with m2 muscarinic receptor and Gq-i5; format: cell-based
T1 construct: expressed in transfected cells; host or cells: NIH 3T3 (ATCC CRL 1658)
T1 sequence (P08172 1-466): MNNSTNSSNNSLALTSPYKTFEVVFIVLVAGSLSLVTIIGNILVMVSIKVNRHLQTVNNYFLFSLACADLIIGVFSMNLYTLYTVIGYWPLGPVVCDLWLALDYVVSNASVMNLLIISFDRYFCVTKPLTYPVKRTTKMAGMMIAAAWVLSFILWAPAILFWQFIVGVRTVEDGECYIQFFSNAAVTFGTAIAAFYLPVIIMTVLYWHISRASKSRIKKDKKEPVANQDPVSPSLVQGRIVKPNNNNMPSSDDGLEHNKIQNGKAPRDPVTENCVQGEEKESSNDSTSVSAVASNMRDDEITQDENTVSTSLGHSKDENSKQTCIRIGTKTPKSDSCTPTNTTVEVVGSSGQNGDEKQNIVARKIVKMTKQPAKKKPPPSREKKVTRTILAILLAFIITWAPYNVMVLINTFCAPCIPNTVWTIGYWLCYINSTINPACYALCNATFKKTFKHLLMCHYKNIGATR
Description: (§1) Transfection of cells with muscarinic receptor DNAs (general procedure) NIH 3T3 cells (available from the American Type Culture Collection as ATCC CRL 1658) were grown at 37° C. in a humidified atmosphere (5% CO2) incubator in Dulbecco's modified Eagle's medium (DMEM) supplemented with 4.5 g/l glucose, 4 mM glutamine, 50 units/m1 penicillin, 50 units/m1 streptomycin (available from Advanced Biotechnologies, Inc., Gaithersburg, Md.) and 10% calf serum (available from Sigma, St. Louis, […].). The cells were treated with trypsin-EDTA, spun down and plated at 2×10^6 per 15 cm dish in 20 m1 of DMEM containing 10% calf serum.
(§2) The m1-m5 muscarinic receptor subtypes were cloned substantially as described by Bonner et al., Science 237, 1987, p. 527, and Bonner et al., Neuron 1, 1988, p. 403. For the m2 and m4 receptors, the cells were co-transfected with DNA encoding a chimera between the Gq protein and the five carboxy-terminal amino acids of the Gi protein (the Gq-i5 construct is described by Conklin et al., Nature 363, 1993, p.274).
(§3) On day one, the cells were transfected using the Superfect transfection reagent (available from Qiagen, Valencia, Calif.) in accordance with the manufacturer's instructions. […]

[2] = target: T2, m4 receptor (Homo sapiens, UniProt P08173); test: NIH 3T3 cells transfected with m4 muscarinic receptor and Gq-i5; format: cell-based
T2 construct: expressed in transfected cells; host or cells: NIH 3T3 (ATCC CRL 1658)
T2 sequence (P08173 1-479): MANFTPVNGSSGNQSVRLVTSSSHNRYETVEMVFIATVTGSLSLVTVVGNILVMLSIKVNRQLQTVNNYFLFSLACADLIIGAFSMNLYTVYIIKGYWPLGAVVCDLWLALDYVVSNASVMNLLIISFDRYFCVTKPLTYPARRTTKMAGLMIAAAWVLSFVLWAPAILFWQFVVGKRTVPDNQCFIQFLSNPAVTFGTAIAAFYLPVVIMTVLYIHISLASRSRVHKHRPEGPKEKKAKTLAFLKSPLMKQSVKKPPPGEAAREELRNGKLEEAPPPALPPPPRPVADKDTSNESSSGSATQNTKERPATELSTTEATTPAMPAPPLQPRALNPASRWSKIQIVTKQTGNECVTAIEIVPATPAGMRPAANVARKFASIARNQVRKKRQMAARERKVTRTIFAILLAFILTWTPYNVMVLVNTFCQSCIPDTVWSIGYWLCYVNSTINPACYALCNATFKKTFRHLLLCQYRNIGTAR
Description: as §1, §2, §3

Structure (SMILES): CCCCC1CCN(CCCC(=O)c2ccccc2C)CC1 [Compound A, 4-n-Butyl-1-[4-(2-methylphenyl)-4-oxo-1-butyl]piperidine]
- antagonism of carbachol-induced responses [1]: not an antagonist
- antagonism of carbachol-induced responses [2]: not an antagonist
